Experiment in all cases: Agar Dilution Test (NCCLS), MIC
What all share (assay type): cell-based

Assay [1] has as its system Enterobacter cloacae strains. The text has this: (§1) In particular, the active compounds of the invention show antimicrobial, e.g. antibacterial, activity against e.g. gram negative and gram positive bacteria, e.g. […] bacteria such as Pseudomonas, e.g. Pseudomonas aeruginosa; Escherichia, e.g. Escherichia coli; Enterobacter, e.g. Enterobacter cloacae; Klebsiella, e.g. Klebsiella edwardsii, Klebsiella pneumoniae; Enterococcus, e.g. Enterococcus faecalis; Moraxella, e.g. Moraxell catarrhalis; Streptococcus, e.g. Streptococcus pneumoniae, Streptococcus pyogenes; and Staphylococcus, e.g. Staphylococcus aureus; in vitro in the Agar Dilution Test according to National Commitee for Clinical Laboratory Standards (NCCLS) 1993, Document M7-A3Vol.13, No. 25: “Methods for dilution Antimicrobial Susceptibility Tests for Bacteria that Grow Aerobically—Third Edition, Approved Standard”. […] The active compounds of the invention show an surprising overall activity spectrum.

In assay [2] the test system is E. coli strain ATCC 35218. Conditions: Escherichia coli, ATCC35218.
Text: as §1

Assay [3] concerns E. coli strain ATCC 10536. Conditions: Escherichia coli, ATCC10536.
Text: as §1

Assay [4] deals with Klebsiella edwardsii, strain ATCC 10896. Conditions: ATCC10896, Example 48 tested in form of the hydrochloride.
Text: as §1

Converted amounts (≈) assume the structure as drawn.

Turning to `CCN1CCN(N=CC2=C(C(=O)O)N3C(=O)C(NC(=O)/C(=N\OCF)c4nsc(N)n4)[C@H]3SC2)C1=NC` (some centres unmarked) [Example 48, 7-{[(5-amino-1,2,4-thiadiazole-3-yl)-(Z)-(fluoromethoxyimino)-acetyl]amino}-3-{[(3-ethyl-2-methylimino-imidazolidine-1-yl)imino]methyl}-3-cephem-4-carboxylic acid], the MIC was under 0.0125 µg/mL in assay [1], under 0.0125 µg/mL in assay [2], under 0.0125 µg/mL in assay [3] and about 0.8 µg/mL (≈ 1.44 µM) in assay [4].
`CC(C)(O/N=C(\C(=O)N[C@@H]1C(=O)N2C(C(=O)[O-])=C(C[n+]3ccccc3)CS[C@H]12)c1csc(N)n1)C(=O)O` [ceftazidime, reference compound] came in with an MIC in assay [4] of about 1.6 µg/mL (≈ 2.93 µM).
